Measurements as given in article PMC6017290, “Oleanolic Acid-amino Acids Derivatives: Design, Synthesis, and Hepatoprotective Evaluation In Vitro and In Vivo” (Molecules : A Journal of Synthetic Chemistry and Natural …, 2018).

Experiments:
HSCs [1] = experiment: MTT cell viability assay, HSCs; assay type: cell-based; settings: 72 h, mean ± SD of three experiments
Method: (§1) Cell viability was evaluated using an MTT assay. HSCs, HepG2, Bel-7402, and L02 cells were seeded, respectively, in 96-well plates at a density of 3 × 10^3 cells per-well and stabilized at 37 °C for 24 h in a humidified atmosphere with 5% CO2. The growing cells were exposed to various concentrations of the tested drugs and incubated for 72 h (37 °C, 5% CO2). The MTT solution (20 μL, 5 mg/mL) was added to each well and incubated for 4 h. After removing the media, formazan crystals were dissolved with DMSO (150 μL). After shaking for 10 min, the absorbance was quantified at 490 nm. Wells containing no drugs were used as blanks. The IC50 values were defined as the concentration of compounds that produced a 50% reduction of surviving cells and were calculated using the Logit-method. The inhibitory rate was calculated in the following Equation (1): Inhibition rate (%) = (1 − OD Sample group/OD Control group) × 100%(1)

Bel-7402 = experiment: MTT cell viability assay, Bel-7402; assay type: cell-based; settings: Homo sapiens, 72 h, mean ± SD of three experiments
Method: as §1

HepG2 = experiment: MTT cell viability assay, HepG2; assay type: cell-based; settings: Homo sapiens, 72 h, mean ± SD of three experiments
Method: as §1

L02 = experiment: MTT cell viability assay, L02 normal liver cell; assay type: cell-based; settings: Homo sapiens, 72 h, mean ± SD of three experiments
Method: as §1

[2] = test system: CCl4 acute liver injury mice model; experiment: CCl4 acute liver injury mice model (HE staining, serum ALT and AST); assay type: in vivo; settings: 20 mg/kg intragastric, 8 days, CCl4 i.p., 16 h after injury; for activity of ALT in serum / activity of AST in serum: vs model group
Method: The twelve mice were randomly divided into the control group, model group, administration of OA group, and administration of 3g group. In the administration of OA and 3g group, the mice were fed with OA and 3g suspension with 0.5% CMC-Na at a dose of 20 mg/kg body weight. The control group and model group were intragastrically administered with equal volume of 0.5% CMC-Na; during administration for 8 days, the general activity, fur, and feces of mice were observed daily. After administration for 1 h on the 8th day, the other groups were intraperitoneally injected with 10mL/kg 0.2% of the carbon tetrachloride (CCl4) olive oil solution, while the control group was intraperitoneally injected with olive oil solution. After 16 h of injury, the serum was prepared by centrifugation at 3000 rpm by orbital blood. The ability of ALT and AST was measured according to the instructions of the assay kit. The liver tissues of each group were taken out and the morphological differences were observed. The large lobe of liver was taken for pathological examination with HE staining under an optical microscope (×100).

HSCs [3] = experiment: Giemsa staining and DAPI staining, morphological changes; assay type: cell-based; settings: 1.5, 3.0, 6.0 µM, 72 h
Method: HSCs cells in logarithmic growth phase were cultured in 6-well plates at a density of 3 × 10^4 cells/mL for 24 h at 37 °C in a humidified atmosphere with 5% CO2. Then, each group was treated with 3g at various concentrations (0, 1.5, 3.0, and 6.0 µM) for 72 h. The cell culture medium was discarded. Additionally, the cells were washed twice with PBS, kept in PBS/ethanol (1:1) for 2 min, and fixated in ethanol for 10 min. After removing the ethanol, the cells were stained with giemsa staining for 2 min and observed under inverted phase-contrast microscope at a magnification of 400×.
HSCs cells in logarithmic growth phase were cultured in 6-well plates at a density of 3 × 10^4 cells/mL for 24 h at 37 °C in a humidified atmosphere with 5% CO2. Additionally, each group was treated with different concentrations of 3g (0, 1.5, 3.0, and 6.0 µM) for 72 h. Cell culture medium was discarded, and the cells were washed twice with PBS. The cells were fixed with 4% paraformaldehyde (pH 7.4) for 15 min and then washed twice with PBS. With an excitation wavelength of […], 4′,6-diamidino-2-phenylindole (DAPI) staining was then performed for 2 min, and nuclear fragments were observed using inverted phase-contrast microscope at a magnification of 400×.

HSCs [4] = experiment: Mitochondrial membrane potential assay (Rh123, flow cytometry); assay type: cell-based; settings: 1.5, 3.0, 6.0 µM, 72 h
Method: HSCs cells in logarithmic growth phase were seeded in 6-well culture plate at a density of 3 × 10^4 cells/mL for 24 h at 37 °C in incubator with 5% CO2. After treatment with different concentrations of 3g (0, 1.5, 3.0, and 6.0 μM) for 72 h, cells were collected and washed twice in cold PBS, then resuspended in 1 mL cell culture medium with Rh123 (10 μg/mL) and incubated for 30 min at 37 °C. After being washed twice with cold PBS, cells were immediately analyzed by the flow cytometer at 488 nm excitation wavelength.

HSCs [5] = experiment: Annexin V-FITC/PI staining apoptosis assay (flow cytometry); assay type: cell-based; settings: 72 h, control cells 15.1%
Method: HSCs cells in logarithmic growth phase were cultured in 6-well plates at a density of 3 × 10^4 cells/mL for 24 h at 37 °C in a humidified atmosphere with 5% CO2. HSCs cells were treated with 3g at various concentrations (0, 1.5, 3.0, and 6.0 µM) for 72 h. Then, cells were collected, washed with annexin-binding buffer, and stained with annexin V-FITC and PI for 15 min in the dark. After that, the samples were analyzed by flow cytometry (BD FACSCalibur, San Jose, CA, USA).

HSCs [6] = experiment: Intracellular free Ca2+ levels assay (Fluo-3AM, flow cytometry); assay type: cell-based; settings: 1.5, 3.0, 6.0 µM, 72 h
Method: HSCs cells in logarithmic growth phase were cultured in 6-well plates at a density of 3 × 10^4 cells/mL for 24 h at 37 °C in incubator with 5% CO2. After treatment with different concentrations of 3g (0, 1.5, 3.0, and 6.0 μM) for 72 h, cells were collected and washed twice with cold PBS, then resuspended in HBSS buffer with 10 μM Fluo-3AM and incubated for 30 min at 37 °C in the dark. Intracellular Ca^2+ levels were analyzed by the flow cytometer at 488 nm excitation wavelength.

Structure (SMILES)	IC50 (Bel-7402) [µM]	IC50 (HepG2) [µM]	IC50 (HSCs [1]) [µM]	IC50 (L02) [µM]	activity of ALT in serum [2]	activity of AST in serum [2]	apoptotic morphological changes of HSCs, Giemsa staining (HSCs [3])	nuclear changes of HSCs, DAPI staining (HSCs [3])	liver morphological observation by HE staining [2]	change of Rh123 mean fluorescent intensity (MFI) with concentration (HSCs [4])	percentage (Q2 + Q4) of apoptotic HSCs (HSCs [5]; 1.5 µM) [%]	percentage (Q2 + Q4) of apoptotic HSCs (HSCs [5]; 3.0 µM) [%]	percentage (Q2 + Q4) of apoptotic HSCs (HSCs [5]; 6.0 µM) [%]	change of intracellular-free Ca2+ fluorescence with concentration (HSCs [6])
CNCC(=O)OC1CCC2(C)C(CCC3(C)C2CC=C2C4CC(C)(C)CCC4(C(=O)O)CCC23C)C1(C)C (centres unmarked) [3i]	11.8 ± 0.83	> 25	7.3 ± 1.58	> 50	–	–	–	–	–	–	–	–	–	–
CC1(C)CCC2(C(=O)O)CCC3(C)C(=CCC4C5(C)CCC(OC(=O)CN)C(C)(C)C5CCC43C)C2C1 (centres unmarked) [3a]	12.1 ± 1.32	11.5 ± 0.95	13.6 ± 1.12	> 25	–	–	–	–	–	–	–	–	–	–
CC1(C)CCC2(C(=O)O)CCC3(C)C(=CCC4C5(C)CCC(OC(=O)C6CCC(=O)N6)C(C)(C)C5CCC43C)C2C1 (centres unmarked) [3j]	> 25	23.9 ± 2.65	> 25	> 50	–	–	–	–	–	–	–	–	–	–
CC1(C)CC[C@]2(C(=O)O)CC[C@]3(C)C(=CC[C@@H]4[C@@]5(C)CC[C@H](O)C(C)(C)[C@@H]5CC[C@]43C)[C@@H]2C1 [OA, 3β-hydroxyolean-12-en-28-oic acid, reference compound]	> 50	> 50	> 50	> 50	reduced to some extent	reduced to some extent	–	–	–	–	–	–	–	–
CC1(C)CCC2(C(=O)O)CCC3(C)C(=CCC4C5(C)CCC(OC(=O)C(N)CCCCN)C(C)(C)C5CCC43C)C2C1 (centres unmarked) [3g]	4.7 ± 0.75	3.67 ± 0.61	3.46 ± 1.16	12.3 ± 2.34	remarkably closer to control	remarkably closer to control	evident nuclear fragmentation, chromatin condensation, and margination in a dose-dependent manner	nuclear condensation and fragmentation, as well as the formation of apoptotic bodies with irregular shape	more pathological changes were relieved in balloon-like hepatocyte edema and interstitial inflammatory cell infiltration than in OA	decreased with the administration of higher concentrations	29.4	50.5	76.5	increased dramatically
CC1(C)CCC2(C(=O)O)CCC3(C)C(=CCC4C5(C)CCC(OC(=O)C6CCCN6)C(C)(C)C5CCC43C)C2C1 (centres unmarked) [3c]	10.5 ± 1.49	11.1 ± 0.63	15.6 ± 2.31	10.1 ± 0.56	–	–	–	–	–	–	–	–	–	–
CC1(C)CCC2(C(=O)O)CCC3(C)C(=CCC4C5(C)CCC(OC(=O)C(N)Cc6ccccc6)C(C)(C)C5CCC43C)C2C1 (centres unmarked) [3h]	8.5 ± 1.65	11.5 ± 0.94	14.8 ± 0.8	> 50	–	–	–	–	–	–	–	–	–	–

Second part, led by results:

IC50 (Bel-7402) [µM]	IC50 (HepG2) [µM]	Structure (SMILES)	IC50 (HSCs [1]) [µM]	IC50 (L02) [µM]	activity of ALT in serum [2]	activity of AST in serum [2]	apoptotic morphological changes of HSCs, Giemsa staining (HSCs [3])	nuclear changes of HSCs, DAPI staining (HSCs [3])	liver morphological observation by HE staining [2]	change of Rh123 mean fluorescent intensity (MFI) with concentration (HSCs [4])	percentage (Q2 + Q4) of apoptotic HSCs (HSCs [5]; 1.5 µM) [%]	percentage (Q2 + Q4) of apoptotic HSCs (HSCs [5]; 3.0 µM) [%]	percentage (Q2 + Q4) of apoptotic HSCs (HSCs [5]; 6.0 µM) [%]	change of intracellular-free Ca2+ fluorescence with concentration (HSCs [6])
> 25	18.6 ± 2.65	CC(C)C(N)C(=O)OC1CCC2(C)C(CCC3(C)C2CC=C2C4CC(C)(C)CCC4(C(=O)O)CCC23C)C1(C)C (centres unmarked) [3f]	19.6 ± 3.2	15.2 ± 1.2	–	–	–	–	–	–	–	–	–	–
> 25	> 25	CC(C)CC(N)C(=O)OC1CCC2(C)C(CCC3(C)C2CC=C2C4CC(C)(C)CCC4(C(=O)O)CCC23C)C1(C)C (centres unmarked) [3d]	> 25	> 25	–	–	–	–	–	–	–	–	–	–
18.7 ± 1.63	18 ± 1.78	CCC(C)C(N)C(=O)OC1CCC2(C)C(CCC3(C)C2CC=C2C4CC(C)(C)CCC4(C(=O)O)CCC23C)C1(C)C (centres unmarked) [3e]	24.5 ± 1.99	> 25	–	–	–	–	–	–	–	–	–	–
> 25	12.2 ± 1.48	CC(N)C(=O)OC1CCC2(C)C(CCC3(C)C2CC=C2C4CC(C)(C)CCC4(C(=O)O)CCC23C)C1(C)C (centres unmarked) [3b]	9.92 ± 1.05	> 50	–	–	–	–	–	–	–	–	–	–
